In patent US20240158446A1, “CYCLIC COMPOUND HAVING SELECTIVE INHIBITORY ACTION ON KRAS OVER HRAS AND NRAS” (CHUGAI SEIYAKU KABUSHIKI KAISHA, priority 2021, published 2024):

Experiments:
[1] = biological target: GDP-bound HRAS wild-type protein (Homo sapiens, UniProt P01112); test: Binding to HRAS by surface plasmon resonance (SPR), Single Cycle Kinetics; details: for HRAS/KRAS (ratio of KD value for HRAS to KD value for KRAS): SPR, GDP-bound HRAS wild-type protein vs GDP-bound KRAS wild-type protein; for HRAS/KRAS (ratio of KD value with respect to GDP-bound HRAS wild-type protein to KD value with respect to KRAS): SPR KD ratio HRAS/KRAS, class symbols
GDP-bound HRAS wild-type protein, sequence (P01112 whole entry): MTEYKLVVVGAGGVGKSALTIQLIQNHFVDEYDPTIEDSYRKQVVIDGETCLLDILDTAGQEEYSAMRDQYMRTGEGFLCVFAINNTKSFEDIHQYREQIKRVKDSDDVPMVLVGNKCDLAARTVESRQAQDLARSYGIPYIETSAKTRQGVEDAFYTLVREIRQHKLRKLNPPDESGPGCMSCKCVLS

[2] = biological target: GDP-bound NRAS wild-type protein (Homo sapiens, UniProt P01111); test: Binding to NRAS by surface plasmon resonance (SPR), Single Cycle Kinetics; details: for NRAS/KRAS (ratio of KD value for NRAS to KD value for KRAS): SPR, GDP-bound NRAS wild-type protein vs GDP-bound KRAS wild-type protein; for NRAS/KRAS (ratio of KD value with respect to GDP-bound NRAS wild-type protein to KD value with respect to KRAS): SPR KD ratio NRAS/KRAS, class symbols
GDP-bound NRAS wild-type protein, sequence (P01111 whole entry): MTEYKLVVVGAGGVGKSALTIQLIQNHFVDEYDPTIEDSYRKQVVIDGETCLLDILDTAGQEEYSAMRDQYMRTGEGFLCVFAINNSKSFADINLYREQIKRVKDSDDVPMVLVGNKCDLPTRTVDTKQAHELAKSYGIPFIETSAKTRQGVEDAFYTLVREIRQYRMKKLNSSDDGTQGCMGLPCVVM

| Compound | HRAS/KRAS (ratio of KD value for HRAS to KD value for KRAS) [1] | NRAS/KRAS (ratio of KD value for NRAS to KD value for KRAS) [2] | HRAS/KRAS (ratio of KD value with respect to GDP-bound HRAS wild-type protein to KD value with respect to KRAS) [1] | NRAS/KRAS (ratio of KD value with respect to GDP-bound NRAS wild-type protein to KD value with respect to KRAS) [2] | further results |
| --- | --- | --- | --- | --- | --- |
| C#CCN1CC(=O)N(C)[C@H]2C/C=C\CCN(C2=O)[C@@H](Cc2ccc(C)cc2)C(=O)N(C)CC(=O)N[C@@H](CCc2ccc(C(F)(F)F)c(OC)c2)C(=O)N2C[C@H](OCC)C[C@H]2C(=O)NC2(CC(C)(C)C2)C(=O)N(C)[C@@H](C2CCCC2)C(=O)N(C)[C@H](C(=O)N(C)C)CC(=O)N(C)[C@@H](CCC)C(=O)N[C@@H]([C@@H](C)CC)C1=O [PP2099] | A (a compound having 10 or more and less than 20 is denoted as A) | A (a compound having 10 or more and less than 20 is denoted as A) |  |  |  |
| CCO[C@@H]1C[C@H]2C(=O)NC3(CC(C)(C)C3)C(=O)N(C)[C@@H](C3CCCC3)C(=O)N(C)[C@H](C(=O)N(C)C)CC(=O)N(C)[C@@H](CC(C)C)C(=O)N[C@@H]([C@@H](C)CC)C(=O)N(C)CC(=O)N(C)[C@H]3C/C=C\CCN(C3=O)[C@@H](Cc3ccc(C(C)C)cc3)C(=O)N(C)CC(=O)N[C@@H](CCc3ccc(C(F)(F)F)c(OC)c3)C(=O)N2C1 [PP2692] |  |  | A (a compound having 10 or more and less than 20 is denoted as A) | A (a compound having 10 or more and less than 20 is denoted as A) |  |
| CCO[C@@H]1C[C@H]2C(=O)NC3(CCC3)C(=O)N(C)[C@@H](C3CCCC3)C(=O)N(C)[C@H](C(=O)N3CCOCC3)CC(=O)N(C)[C@@H](CC3CC3)C(=O)N[C@@H]([C@@H](C)CC)C(=O)N(C)CC(=O)N(C)[C@H]3C/C=C\CCN(C3=O)[C@@H](Cc3ccc(F)cc3C)C(=O)N(C)CC(=O)N[C@@H](CCc3cc(F)c(C(F)(F)F)c(F)c3)C(=O)N2C1 [PP1495] |  |  |  |  | HRAS/KRAS (ratio of KD value for HRAS to KD value for KRAS) ([1]; KD ratio class): B (a compound having 3 or more and less than 10 is denoted as B); NRAS/KRAS (ratio of KD value for NRAS to KD value for KRAS) ([2]; KD ratio class): A (a compound having 10 or more and less than 20 is denoted as A) |
| CCOC[C@H]1C(=O)N[C@@H]([C@@H](C)CC)C(=O)N(C)CC(=O)N(C)[C@H]2C/C=C\CCN(C2=O)[C@@H](Cc2ccc(CC)cc2)C(=O)N(C)CC(=O)N[C@@H](CCc2ccc(C(F)(F)F)c(OC)c2)C(=O)N2C[C@@H](C)C[C@H]2C(=O)NC2(CC(C)(C)C2)C(=O)N(C)[C@@H](C2CCCC2)C(=O)N(C)[C@H](C(=O)N(C)CC)CC(=O)N1C (stereo in doubt) [PP2696] |  |  | B (a compound having 3 or more and less than 10 is denoted as B) | A (a compound having 10 or more and less than 20 is denoted as A) |  |
| CCCCO[C@@H]1C[C@H]2C(=O)NC3(CCC3)C(=O)N(C)[C@@H](C3CCCC3)C(=O)N(C)[C@H](C(=O)N3CCOCC3)CC(=O)N(C)[C@@H](CC(C)C)C(=O)N[C@@H]([C@@H](C)CC)C(=O)N(C)CC(=O)N(C)[C@H]3CCCCN(C3=O)[C@@H](Cc3ccc(C(F)(F)F)cc3)C(=O)N(C)CC(=O)N[C@@H](CCc3cc(F)c(C(F)(F)F)c(F)c3)C(=O)N2C1 [PP1013] | C (A compound having a KD ratio of 0.1 or more and less than 3 is denoted as C) | C (A compound having a KD ratio of 0.1 or more and less than 3 is denoted as C) |  |  |  |
| CCCN1C(=O)CN(C)C(=O)CN(C)C(=O)[C@H]([C@@H](C)CC)NC(=O)[C@@H]2COCC=CC[C@@](C)(NC(=O)[C@@H]3C[C@@H](OCC)CN3C(=O)[C@H](CCc3cc(F)c(C(F)(F)F)c(F)c3)NC(=O)CN(C)C(=O)[C@@H]1Cc1ccc(C(F)(F)F)cc1)C(=O)N(C)[C@@H](C1CCCC1)C(=O)N(C)[C@H](C(=O)N1CCOCC1)CC(=O)N2C (stereo in doubt) [PP0903] | C (A compound having a KD ratio of 0.1 or more and less than 3 is denoted as C) | B (a compound having 3 or more and less than 10 is denoted as B) |  |  |  |
| CCC[C@H]1C(=O)N[C@@H]([C@@H](C)CC)C(=O)N(C)CC(=O)N(C)[C@H]2C/C=C\CCN(C2=O)[C@@H](Cc2ccc(C(F)(F)F)cc2)C(=O)N(C)CC(=O)N[C@@H](CCc2ccc(C(F)(F)F)c(C3CC3)c2)C(=O)N2C[C@H](OCC)C[C@H]2C(=O)NC2(CC(C)(C)C2)C(=O)N(C)[C@@H](C2CCCC2)C(=O)N(C)[C@H](C(=O)N(C)C)CC(=O)N1C [PP2852] |  |  | B (a compound having 3 or more and less than 10 is denoted as B) | B (a compound having 3 or more and less than 10 is denoted as B) |  |
| CCO[C@@H]1C[C@H]2C(=O)NC3(CC(C)(C)C3)C(=O)N(C)[C@@H](C3CCCC3)C(=O)N(C)[C@H](C(=O)N(C)CC)CC(=O)N(C)[C@H]3CC/C=C/c4ccc(cc4)C[C@@H](C(=O)N(C)CC(=O)N[C@@H](CCc4ccc(Cl)c(Cl)c4)C(=O)N2C1)N1CC/C=C\C[C@@H](C1=O)N(C)C(=O)CN(C1CC1)C(=O)[C@H]([C@@H](C)CC)NC3=O [PP2598] |  |  | A (a compound having 10 or more and less than 20 is denoted as A) | A (a compound having 10 or more and less than 20 is denoted as A) |  |
| CCC(CC)[C@H]1C(=O)N(C)[C@H](C(=O)N(C)C)CC(=O)N(C)[C@@H](COC)C(=O)N[C@@H]([C@@H](C)CC)C(=O)N(C)CC(=O)N(C)[C@H]2C/C=C\CCN(C2=O)[C@@H](Cc2ccc(C)cc2)C(=O)N(C)CC(=O)N[C@@H](CCc2ccc(C(F)(F)F)c(Cl)c2)C(=O)N2CCCC[C@H]2C(=O)NC2(CC(C)(C)C2)C(=O)N1C [PP2931] |  |  | A (a compound having 10 or more and less than 20 is denoted as A) | A (a compound having 10 or more and less than 20 is denoted as A) |  |
| CCC[C@H]1C(=O)N[C@@H]([C@@H](C)CC)C(=O)N(C2CC2)CC(=O)N(C)[C@H]2C/C=C\CCN(C2=O)[C@@H](Cc2ccc(C)cc2)C(=O)N(C)CC(=O)N[C@@H](CCc2ccc(C(F)(F)F)c(OC)c2)C(=O)N2C[C@H](OCC)C[C@H]2C(=O)NC2(CC(C)(C)C2)C(=O)N(C)[C@@H](C2CCCC2)C(=O)N(C)[C@H](C(=O)N(C)C)CC(=O)N1C [PP2097] | A (a compound having 10 or more and less than 20 is denoted as A) | A (a compound having 10 or more and less than 20 is denoted as A) |  |  |  |
| CCC[C@H]1C(=O)N[C@@H]([C@@H](C)CC)C(=O)N(C)CC(=O)N(C)[C@H]2C/C=C\CCN(C2=O)[C@@H](Cc2ccc(C(F)(F)F)cc2)C(=O)N(C)CC(=O)N[C@@H](CCc2ccc(C(F)F)c(OC)c2)C(=O)N2C[C@H](OCC)C[C@H]2C(=O)NC2(CC(C)(C)C2)C(=O)N(C)[C@@H](C2CCCC2)C(=O)N(C)[C@H](C(=O)N(C)C)CC(=O)N1C [PP2868] |  |  | A (a compound having 10 or more and less than 20 is denoted as A) | A (a compound having 10 or more and less than 20 is denoted as A) |  |
| CCO[C@@H]1C[C@H]2C(=O)NC3(CCC3)C(=O)N(C)[C@@H](C3CCCC3)C(=O)N(C)[C@H](C(=O)N3CCOCC3)CC(=O)N(C)[C@@H](COC3CC3)C(=O)N[C@@H]([C@@H](C)CC)C(=O)N(C)CC(=O)N(C)[C@H]3CCCCCN(C3=O)[C@@H](Cc3ccc(C(F)(F)F)cc3)C(=O)N(C)CC(=O)N[C@@H](CCc3cc(F)c(C(F)(F)F)c(F)c3)C(=O)N2C1 [PP0852] | B (a compound having 3 or more and less than 10 is denoted as B) | B (a compound having 3 or more and less than 10 is denoted as B) |  |  |  |
| CCO[C@@H]1C[C@H]2C(=O)NC3(CC(C)(C)C3)C(=O)N(C)[C@@H](C(CC)CC)C(=O)N(C)[C@H](C(=O)N(C)C)CC(=O)N(C)[C@@H](C(C)C)C(=O)N[C@@H]([C@@H](C)CC)C(=O)N(C)CC(=O)N(C)[C@H]3C/C=C\CCN(C3=O)[C@@H](Cc3ccc(C)cc3)C(=O)N(C)CC(=O)N[C@@H](CCc3cc(F)c(C(F)(F)F)c(F)c3)C(=O)N2C1 [PP2153] | A (a compound having 10 or more and less than 20 is denoted as A) | A (a compound having 10 or more and less than 20 is denoted as A) |  |  |  |
| CCC[C@H]1C(=O)N[C@@H]([C@@H](C)CC)C(=O)N(C)CC(=O)N(C)[C@H]2C/C=C\CCN(C2=O)[C@@H](Cc2ccc(C(F)(F)F)cc2)C(=O)N(C)CC(=O)N[C@@H](CCc2ccc(C(F)(F)F)c(Cl)c2)C(=O)N2CC3(CC3)C[C@H]2C(=O)NC2(CC(C)(C)C2)C(=O)N(C)[C@@H](CC(F)(F)F)C(=O)N(C)[C@H](C(=O)N(C)C)CC(=O)N1C [PP2985] | A (a compound having 10 or more and less than 20 is denoted as A) | AA (a compound having 20 or more is denoted as AA) |  |  |  |
| CCO[C@@H]1CCN2C(=O)[C@H](CCc3cc(F)c(C(F)(F)F)c(F)c3)NC(=O)CN(C)C(=O)[C@H](Cc3ccc(C(F)(F)F)cc3)N3CCCCC[C@@H](C3=O)N(C)C(=O)CN(C)C(=O)[C@H]([C@@H](C)CC)NC(=O)[C@H](CC(C)C)N(C)C(=O)C[C@@H](C(=O)N3CCOCC3)N(C)C(=O)[C@H](C3CCCC3)N(C)C(=O)C3(CCC3)NC(=O)[C@H]12 [PP1082] | B (a compound having 3 or more and less than 10 is denoted as B) | A (a compound having 10 or more and less than 20 is denoted as A) |  |  |  |
| CCC[C@H]1C(=O)N[C@@H]([C@@H](C)CC)C(=O)N(C)CC(=O)N(C)[C@H]2C/C=C\CCN(C2=O)[C@@H](Cc2ccc(C)cc2)C(=O)N(C)CC(=O)N[C@@H](CCc2ccc(CC)c(Cl)c2)C(=O)N2C[C@H](OCC)C[C@H]2C(=O)NC2(CC(C)(C)C2)C(=O)N(C)[C@@H](C(CC)CC)C(=O)N(C)[C@H](C(=O)N(C)C)CC(=O)N1C [PP2779] |  |  | A (a compound having 10 or more and less than 20 is denoted as A) | A (a compound having 10 or more and less than 20 is denoted as A) |  |
